Results reported in publication PMC7385176, “Engineering a disulfide-gated switch in streptavidin enables reversible binding without sacrificing binding affinity” (Scientific Reports, 2020).
Read-outs that look alike come from different tables or passages of the source.

Experiments:
[1] = Biotin-4-fluorescein off-rate assay (competitive, fluorescence quenching; Arrhenius extrapolation)
Description: Dissociation kinetics were measured with a competitive assay exploiting the fluorescence quenching of B4F upon binding to streptavidin[13],[30]. In a total volume of 200 μL, 50 nM streptavidin, 10 nM B4F (Invitrogen), 50 mM NaCl, 1 mM EDTA, 20 mM Tris pH 8, were incubated for 30 min. Biotin was added to 0.1 mM to prevent B4F re-association and fluorescence was monitored using a Tecan Infinite M200 plate reader with 485 nm excitation/525 nm emission for 12 h at 25 °C. The maximum, with all B4F unbound, and minimum, with all B4F bound, fluorescence was determined with similar mixtures in the absence of either streptavidin or biotin, respectively, and the fraction of B4F released at each time point was calculated as %B4FReleased=response-min/max-min×100% . […] The rapid phase was ignored and off-rate constants were determined by nonlinear least squares fitting of the data to the single exponential function y=1-e^kt .
High-temperature kinetics were measured by the same competitive assay but instead using a Horiba Jobin–Yvon FluoroMax-4 spectrofluorometer. To limit evaporation and condensation within the cuvette, it was filled to the top with 4 mL of solution using the same concentrations of reagents as above. Fluorescence was initially measured without streptavidin, giving the maximum, unquenched signal. Streptavidin was then added and allowed to equilibrate until a constant fluorescent signal was achieved, and unlabelled biotin was added to start the experiment. At these higher temperatures, the rapid release phase was more apparent and accounted for by fitting the data to the double exponential function y=max-ae^-kat-be^-kbt. The linear Arrhenius plot was generated by plotting ln(koff) against 1/temperature. A linear least squares fit to the function lnkoff=lnA-Ea/RT was used to extrapolate the dissociation constant at lower temperatures.

[2] = Rate of disulfide bond formation (Alexa Fluor 633 maleimide labelling); format: physicochemical; conditions: 10 mM GSSG
Text: Protein disulfide bond formation was catalyzed by thiol-disulfide exchange with either oxidized glutathione (GSSG) or 2,2′-dipyridyldisulfide. Disulfide bonds were inferred by selectively labelling free Cys with Alexa Fluor 633 C5 maleimide (Invitrogen) and subsequent separation by Tricine SDS-PAGE[50]. Detection is based on both fluorescence and a mobility shift due to the large size of these labels (~ 1.3 kDa each, ~ 2.6 kDa if both cysteines in M88 or M112 react). Ratios of reactants were based on those previously described for saturation labelling. Because the N- and C-terminal tails are susceptible to degradation by trace proteases, leading to band heterogeneity in the gel, core-form versions of M88 and M112 were primarily used for this assay. […] Immediately after the run, fluorescence was measured with excitation by 635 nm laser and emission collected through a 665 nm long-pass filter on a Typhoon FLA 9,500 laser scanner (GE Healthcare).
To measure the time course of disulfide formation, streptavidin muteins were reduced with TCEP which was subsequently removed by centrifugal filtration. […] Fluorescence intensity of each band was quantified using ImageQuant software and the amount off free Cys at each timepoint was determined relative to the initial amount. […]

[3] = cited from earlier work
[4] = Thermostability assay (heating in SDS, SDS-PAGE of tetramer); format: physicochemical; conditions: for denaturation of the tetramer: presence of biotin
Description: To assess thermostability, SDS was added to 2% to wild-type or previously oxidized M88 or M112 and was incubated in the presence or absence of 5 mM biotin and in the presence and absence of 200 mM β-mercaptoethanol for 15 min. The samples were heated at 75 or 95 °C for 1 h and aliquots taken every 5 min for the first 30 min, and then at 45 and 60 min. Samples from each time point were run on a 12% SDS-PAGE gel, which were than stained with Coomassie blue. Band intensity was quantified using ImageJ software and the fraction of protein that remained tetrameric was determined relative to time zero. The band intensities for a series of standards was determined to indicate the linear range for quantification.

[5] = Biotin-4-fluorescein on-rate assay; format: binding; conditions: 25 °C
Description: Association kinetics were also monitored by utilizing B4F. […] 20 μL streptavidin was added and measurements were started immediately on a Horiba FluoroMax-4 spectrofluorometer with 490 nm excitation/525 nm emission and 2 and 15 nm slit widths, respectively, for the monochromator. Protein concentrations used were: 0.4, 0.8, 1.6, 2.4, 3.2 nM for wt; 0.8, 1.6, 3.2, 6.4 nM for oxidized M112; 0.4, 0.8, 1.6, 3.2 nM for reduced M112; 0.77, 1.5, 3.1, 6.1 nM for reduced M88 and 6.25, 12.5, 25, 50 nM for traptavidin. For oxidized M88, measurements were done in 60 μL total volume using 10 nM B4F and 50, 100, 200 and 400 nM M88.

Substance: M112: streptavidin mutein G26C/A46C with a Cys-26/Cys-46 disulfide bond on the N-terminal side of loop 3–4
- increase in rate of dissociation for B4F, oxidized vs reduced M112 ([1]; 25 °C): ~ 60 fold
- pseudo-first order rate constant of disulfide bond formation ([2]; 21 °C): 0.14 ± 0.02 h⁻¹
- pseudo-first order rate constant of disulfide bond formation ([2]; 37 °C): 0.41 ± 0.06 h⁻¹

Substance: Wild-type: 66-kDa homotetrameric biotin-binding protein from Streptomyces avidinii; obtained from Bio Basic
- melting temperature ([3]; apo-streptavidin): 75.5 °C
- state at boiling temperatures ([3]; presence of SDS): remains tetrameric and bound to biotin
- melting temperature ([3]; streptavidin–biotin complex): 112.2 °C
- time to denature completely ([4]; 75 °C, absence of biotin): ≤ 5 min
- time to complete denaturation ([4]; 95 °C, biotin absent): less than 1 min
- denaturation of the tetramer ([4]; 95 °C, 60 min incubation): no appreciable denaturation

Substance: M88 oxidized: M88 (N49C/A86C streptavidin mutein) with the Cys-49/Cys-86 disulfide bond formed
- change in B4F fluorescence (dissociation) ([1]; 25 °C, after 12 h): no change in B4F fluorescence measurable
- rate of dissociation lower than wild-type streptavidin ([1]; 25 °C, extrapolated): 225 fold
- stability during kinetics measurement ([1]; 90 °C): appeared to be stable
- rate of dissociation relative to traptavidin ([1]; Arrhenius plot, 25–90 °C): approximately half
- t1/2 ([1]; B4F, 25 °C, calculated as ln(2)/koff): 18.3 ± 6.1 years
- koff ([1]; B4F, 25 °C, extrapolated from the Arrhenius plot): 1.2 ± 0.4 × 10^–9 s^-1
- decrease in rate of association compared to the reduced form of M88 [5]: 18.5 fold
- decrease in rate of association compared to wild-type streptavidin [5]: 117 fold
- kon ([5]; B4F, ± standard error): 4.6 ± 0.3 × 10^5 M^-1 s^-1
- tetramer state after heating ([4]; 75 °C, without biotin, 60 min incubation): remains tetrameric
- denaturation of the tetramer ([4]; 95 °C, 60 min incubation): no appreciable denaturation
